Laboratory results as given in patent US20100222416A1, “Diagnostic Marker and Therapeutic Target for Cancer” (priority 2005, published 2010).

Experiments:
Type in all cases: cell-based, human
[1] = test system: nm23H1-A; experiment: RT-PCR / real time PCR of nm23H1-A mRNA in 5-FU treated colon cancer cell lines; conditions: Colo 205 cells, 100 μM, 24 hrs
Experimental: (§1) The over expression of nm23H1-B was checked at RNA level by RT-PCR. Colo 205 cells were seeded in 6 well plates at 80% confluence and treated with 100 μM of 5FU for 24 hrs. Subsequently, 1 ml of Trizol reagent (Invitrogen) was added to the cells after a phosphate buffer saline washing for extraction of RNA. The total RNA was extracted using chloroform-isopropyl alcohol method. Finally, the pellet was washed with 70% ethanol and dried on a speed-vac. Control RNA from untreated cells was also extracted in a similar fashion (cells, not treated with 5FU.
(§2) RT-PCR was carried out using one step RT-PCR Kit (Qiagen) according to manufacturer's instructions. 1 μg of RNA was taken and mixed with specific primers of nm23H1A & nm23H1B respectively (Table 1, SEQ ID: 3,4,5). β2-micro globulin (primer sequence, Table 1, SEQ ID: 6,7) was used as a control. The PCR amplified samples were then analyzed on a 1.5% agarose gel.

[2] = test system: nm23H1 protein (19.6 kDa form coded by nm23H1-B gene); experiment: Two-dimensional PAGE / MALDI of untreated and 5FU treated Colo 205 cell lysate, differentially expressed proteins; conditions: colo 205 cells, 100 μM, 24 hrs, 2D PAGE spot intensity
Experimental: Two-dimensional gel electrophoresis was carried out to identify differentially expressed proteins on treatment with anticancer agents specifically, colon/colorectal cancer cell line (NCCS, Pune, India) was treated with 5-FU (Fivoflu, Dabur Pharma Ltd, India). Untreated cells (cells, not treated with 5FU) were taken as control.
100 μM of 5-FU was added to colo 205 cells seeded at 80% confluence and were harvested after 24 hrs of treatment. Cells were lysed in lysis buffer (Urea 0.54 g/ml, CHAPS 40 mg/ml and DTT 20 mg/ml) and the clear supernatant of treated and untreated (not treated with 5-FU) cell lysate were subjected to isoelectric focusing (Bio-Rad, Protean IEF Cell) on separate 17 cm IPG strips of 4-7 pH range.
Second dimension electrophoresis was subsequently carried out on a 12% SDS-PAGE (Protean II XL electrophoresis system, Bio-Rad). The gel was silver stained for visualization of the protein spots and a digitized image of the 2D gel was generated, using GS 800 Densitometer (Bio-Rad). […]
The protein spots showing more than 2-fold change in intensity in 5-FU treated and untreated samples were further analyzed. […] The dried samples were reconstituted in 10 μl of 0.1% (v/v of 50% acetonitrile) trifluoroacetic acid and peptides were detected on a Matrix-Assisted Laser Desorption/Ionisation-Time of Flight Mass Spectrometry (MALDI-TOF MS) (Voyager-DE STR). […]

[3] = test system: nm23H1-B gene; experiment: nm23H1-B mRNA expression in colon cancer cells treated with different anticancer agents (RT-PCR and real time PCR); conditions: HT29 cell line, 24 hrs
Experimental: To study the effect of other anticancer agents on expression of nm23H1-B gene, we took representative of different classes of anticancer agents like alkylating agents (cisplatin), topoisomerase I and II inhibitors (CPT-11), RNA/DNA antimetabolites (5-FU) and antimitotic agents (paclitaxel).
Cells were treated with different anticancer agents for 24 hrs and RNA was isolated.

[4] = test system: nm23H1-B gene; experiment: RT-PCR / real time PCR of nm23H1-B mRNA in 5-FU treated colon cancer cell lines (Colo 205, HT29)
Experimental: as §1, §2

[5] = test system: nm23H1-A; experiment: nm23H1-A mRNA expression in colon cancer cells treated with different anticancer agents (RT-PCR and real time PCR); conditions: HT29 cell line, 24 hrs
[6] = test system: nm23H1-B protein; experiment: Western blot of nuclear and cytosolic fractions of 5FU treated Colo 205 cells; conditions: 100 μM, 24 hours
Experimental: Intracellular localization of both nm23H1-A & nm23H1-B gene was evaluated by Western Blot analysis. Colo 205 cells were treated with 100 μM 5FU for 24 hours and cells were removed from their dishes by gentle scraping. Cells were washed with cold PBS and then resuspended in cold nuclei extraction buffer (320 mM sucrose, 5 mM Mgcl2, 10 mM HEPES, 1% Triton X-100 at pH 7.4) at a ratio of 1 ml per million cells. Nuclear fraction was then pelleted by centrifugation at 2000×g and washed twice with nuclei washing buffer (same as nuclei extraction buffer without Triton X-100). Supernatant was collected separately as a cytosolic fraction. Protein was estimated in both nuclear and cytosolic fraction and equal amount of protein was loaded on a 15% SDS PAGE followed by electrobloting on to a polyvinylidene difluoride membrane. Transferred proteins were incubated with blocking buffer containing 3% bovine serum albumin in phosphate-buffered saline. Polyclonal antibody specific for nm23 protein (Santa Cruz) and peroxidase-labeled goat anti-rabbit IgG (Sigma) were used to probe the target gene.

## O=c1[nH]cc(F)c(=O)[nH]1 [5-FU]
[1]
  change in nm23H1-A expression level (RNA level): insignificant change
[2]
  up regulation of nm23H1 protein in treated cells as compared to untreated: more than 6 fold
[3]
  mRNA levels of nm23H1-B: Increase
[4]; Colo 205 cells, 100 μM, 24 hrs, RT-PCR
  change in nm23H1-B gene expression (RNA level): up regulation
[4]; colon/colorectal cancer cells
  overexpression of nm23H1-B gene: about nine
[5]
  mRNA levels of nm23H1-A: Increase
[6]
  nm23H1-B protein level: up-regulation

## CCc1c2c(nc3ccc(OC(=O)N4CCC(N5CCCCC5)CC4)cc13)-c1cc3c(c(=O)n1C2)COC(=O)[C@]3(O)CC [CPT11, camptothecin-11]
[3]
  mRNA levels of nm23H1-B: Increase
[5]
  mRNA levels of nm23H1-A: Increase

## N.N.[Cl][Pt][Cl] [cisplatin]
[3]
  mRNA levels of nm23H1-B: Increase
[5]
  mRNA levels of nm23H1-A: Increase

## CC(=O)O[C@H]1C(=O)[C@@]2(C)[C@H]([C@H](OC(=O)c3ccccc3)[C@]3(O)C[C@H](OC(=O)[C@H](O)[C@@H](NC(=O)c4ccccc4)c4ccccc4)C(C)=C1C3(C)C)[C@]1(OC(C)=O)CO[C@@H]1C[C@@H]2O [paclitaxel]
[3]
  mRNA levels of nm23H1-B: Increase
[5]
  mRNA levels of nm23H1-A: Increase
